Data as given in patent publication US20200339511A1, “Substituted indoline derivatives as dengue viral replication inhibitors” (priority 2016, published 2020).
Read-outs that look alike come from different tables or passages of the source.

Tests used:
[1] = system: DENV-2 16681 strain; experiment: DENV-2 antiviral assay (eGFP-labeled virus in Vero cells); assay type: cell-based, Dengue virus; settings: DENV-2 16681 eGFP, MOI 0.5, 3 days
Procedure: The antiviral activity of all the compounds of the invention was tested the against DENV-2 16681 strain which was labeled with enhanced green fluorescent protein (eGPF). The culture medium consists of minimal essential medium supplemented with 2% of heat-inactivated fetal calf serum, 0.04% gentamycin (50 mg/mL) and 2 mM of L-glutamine. Vero cells, obtained from ECACC, were suspended in culture medium and 25 μL was added to 384-well plates (2500 cells/well), which already contain the antiviral compounds. Typically, these plates contain a 5-fold serial dilution of 9 dilution steps of the test compound at 200 times the final concentration in 100% DMSO (200 nL). […] Finally, each plate contains wells which are assigned as virus controls (containing cells and virus in the absence of compound), cell controls (containing cells in the absence of virus and compound) and medium controls (containing medium in the absence of cells, virus and compounds). To the wells assigned as medium control, 25 μL of culture medium was added instead of Vero cells. Once the cells were added to the plates, the plates were incubated for 30 minutes at room temperature to allow the cells to distribute evenly within the wells. Next, the plates were incubated in a fully humidified incubator (37° C., 5% CO2) until the next day. Then, DENV-2 strain 16681, labeled with eGFP, was added at a multiplicity of infection (MOI) of 0.5. Therefore, 15 μL of virus suspension was added to all the wells containing test compound and to the wells assigned as virus control. In parallel, 15 μL of culture medium was added to the medium and cell controls. Next, the plates were incubated for 3 days in a fully humidified incubator (37° C., 5% CO2). At the day of the read out, the eGFP fluorescence was measured using an automated fluorescence microscope at 488 nm (blue laser). Using an in-house LIMS system, inhibition dose response curves for each compound were calculated and the half maximal effective concentration (EC50) was determined. Therefore, the percent inhibition (I) for every test concentration is calculated using the following formula: I=100*(ST-SCC)/(SVC-SCC), ST, SCC and SVC are the amount of eGFP signal in the test compound, cell control and virus control wells, respectively. The EC50 represents the concentration of a compound at which the virus replication is inhibited with 50%, as measured by a 50% reduction of the eGFP fluorescent intensity compared to the virus control. The EC50 is calculated using linear interpolation (Table 1).

[2] = in vitro; settings: African green monkey
[3] = system: DENV-1 strain TC974#666; experiment: Tetravalent RT-qPCR assay, serotype 1; assay type: cell-based, Dengue virus; settings: RT-qPCR serotype 1 TC974#666, Protocol A, Vero cells, day 3
Procedure: (§1) Tetravalent reverse transcriptase quantitative-PCR (RT-qPCR) assay The antiviral activity of the compounds of the invention was tested against DENV-1 strain TC974#666 (NCPV), DENV-2 strain 16681, DENV-3 strain H87 (NCPV) and DENV-4 strain H241 (NCPV) in a RT-qPCR assay. Therefore, Vero cells were infected with either DENV-1, or -2, or -3, or -4 in the presence or absence of test compounds. At day 3 post-infection, the cells were lysed and cell lysates were used to prepare cDNA of both a viral target (the 3′UTR of DENV; Table 2) and a cellular reference gene (β-actin, Table 2). Subsequently, a duplex real time PCR was performed on a Lightcycler480 instrument. The generated Cp value is inversely proportional to the amount of RNA expression of these targets. Inhibition of DENV replication by a test compound results in a shift of Cp's for the 3′UTR gene. On the other hand, if a test compound is toxic to the cells, a similar effect on β-actin expression will be observed. The comparative ΔΔCp method is used to calculate EC50, which is based on the relative gene expression of the target gene (3′UTR) normalized with the cellular housekeeping gene (β-actin). In addition, CC50 values are determined based on the Cp values acquired for the housekeeping gene β-actin.
(§2) The culture medium consisted of minimal essential medium supplemented with 2% of heat-inactivated fetal calf serum, 0.04% gentamycin (50mg/mL) and 2 mM of L-glutamine. Vero cells, obtained from ECACC, were suspended in culture medium and 75 μL/well was added in 96-well plates (10000 cells/well), which already contain the antiviral compounds. […] In addition, each plate contains wells which are assigned as virus controls (containing cells and virus in the absence of compound) and cell controls (containing cells in the absence of virus and compound). Once the cells were added in the plates, the plates were incubated in a fully humidified incubator (37° C., 5% CO2) until the next day. Dengue viruses serotype-1, 2, 3 and 4 were diluted in order to obtain a Cp of ˜22-24 in the assay. Therefore, 25 μL of virus suspension was added to all the wells containing test compound and to the wells assigned as virus control. In parallel, 25 μL of culture medium was added to the cell controls. Next, the plates were incubated for 3 days in a fully humidified incubator (37° C., 5% CO2). After 3 days, the supernatant was removed from the wells and the cells were washed twice with ice-cold PBS (˜100 μL). The cell pellets within the 96-well plates were stored at −80° C. for at least 1 day. Next, RNA was extracted using the Cells-to-CT™ lysis kit, according to the manufacturer's guideline (Life Technologies). The cell lysates can be stored at −80° C. or immediately used in the reverse transcription step.
(§3) In preparation of the reverse transcription step, mix A (table 3A) was prepared and 7.57 μL/well was dispensed in a 96-well plate. After addition of 5 μL of the cell lysates, a five minute denaturation step at 75° C. was performed (table 3B). Afterwards, 7.43 μL of mix B was added (table 3C) and the reverse transcription step was initiated (table 3D) to generate cDNA.
(§4) Finally, a RT-qPCR mix was prepared, mix C (table 4A), and 22.02 μL/well was dispensed in 96-well LightCycler qPCR plates to which 3μL of cDNA was added and the qPCR was performed according to the conditions in table 4B on a LightCycler 480.
(§5) Using the LightCycler software and an in-house LIMS system, dose response curves for each compound were calculated and the half maximal effective concentration (EC50) and the half maximal cytotoxic concentration (CC50) were determined (Tables 5-8).

[4] = system: DENV-2 strain 16681; experiment: Tetravalent RT-qPCR assay, serotype 2; assay type: cell-based, Dengue virus; settings: RT-qPCR serotype 2 16681, Protocol A, Vero cells, day 3
Procedure: as §1, §2, §3, §4, §5

[5] = system: DENV-3 strain H87; experiment: Tetravalent RT-qPCR assay, serotype 3; assay type: cell-based, Dengue virus; settings: RT-qPCR serotype 3 H87, Protocol A, Vero cells, day 3
Procedure: as §1, §2, §3, §4, §5

[6] = system: DENV-4 strain H241; experiment: Tetravalent RT-qPCR assay, serotype 4; assay type: cell-based, Dengue virus; settings: RT-qPCR serotype 4 H241, Protocol A, Vero cells, day 3, read-out: EC50
Procedure: as §1, §2, §3, §4, §5

[7] = system: Vero cells; settings: African green monkey
[8] = Dengue virus, DENV2, Vero, 72 h
[9] = Dengue virus, DENV1, Vero, 72 h
[10] = Dengue virus, DENV3, Vero, 72 h
[11] = Dengue virus, DENV4, Vero, 72 h

Structure (SMILES) | EC50 [1, 8] [µM] | melting point [°C] | CC50 [2] [µM] | EC50 [1] [µM] | EC50 [3, 9] [µM] | EC50 [4, 8] [µM] | EC50 [5, 10] [µM] | EC50 [6, 11] [µM] | CC50 [7] [µM] | EC50 [3] [µM] | EC50 [4] [µM] | EC50 [5] [µM] | EC50 [6] [µM]
COc1cc(NC(C(=O)N2CCc3cc(OC)c(OC(F)(F)F)cc32)c2ccc(Cl)cc2)cc(OCCO)c1 (racemic) [Compound 13, 2-(4-chlorophenyl)-2-((3-(2-hydroxyethoxy)-5-methoxyphenyl)amino)-1-(5-methoxy-6-(trifluoromethoxy)indolin-1-yl)ethanone] | 0.0049 | 165 | 13 |  |  |  |  |  |  |  |  |  | 
COc1cc(NC(C(=O)N2CCc3c(C)cc(OC(F)(F)F)cc32)c2ccc(Cl)cc2)cc(OCCO)c1 (single isomer, unassigned) [Compound 9B, 2-(4-chlorophenyl)-2-((3-(2-hydroxyethoxy)-5-methoxy-phenyl)amino)-1-(4-methyl-6-(trifluoromethoxy)indolin-1-yl)ethanone] |  |  |  | 0.0014 | 0.0027 | 0.0012 | 0.016 | 0.11 | 11 |  |  |  | 
COc1cc(NC(C(=O)N2CCc3c(C)cc(C(F)(F)F)cc32)c2ccc(Cl)cc2)cc(OCCO)c1 (single isomer, unassigned) [Compound 10B, 2-(4-chlorophenyl)-2-((3-(2-hydroxyethoxy)-5-methoxy-phenyl)amino)-1-(4-methyl-6-(trifluoromethyl)indolin-1-yl)ethanone] |  |  |  | 0.0022 | 0.0017 | 0.0023 | 0.016 | 0.16 | 11 |  |  |  | 
COc1cc(NC(C(=O)N2CCc3cc(OC)c(C(F)(F)F)cc32)c2ccc(Cl)cc2F)cc(OCCO)c1 (single isomer, unassigned) [Compound 8B, 2-(4-chloro-2-fluorophenyl)-2-((3-(2-hydroxyethoxy)-5-methoxyphenyl)amino)-1-(5-methoxy-6-(trifluoromethyl)indolin-1-yl)ethanone] |  |  |  | 0.0019 | 0.0081 | 0.0023 | 0.05 | 0.12 | ≥ 76 |  |  |  | 
COc1cc(NC(C(=O)N2CCc3cc(F)c(C(F)(F)F)cc32)c2ccc(Cl)cc2)cc(OCCO)c1 (single isomer, unassigned) [Compound 12A, 2-(4-chlorophenyl)-1-(5-fluoro-6-(trifluoromethyl)indolin-1-yl)-2-((3-(2-hydroxyethoxy)-5-methoxyphenyl)amino)ethanone] |  |  | 12 | 0.0023 | 0.0033 | 0.0044 | 0.04 | 0.24 |  |  |  |  | 
COc1cc(NC(C(=O)N2CCc3ccc(C(F)(F)F)cc32)c2ccc(Cl)cc2OC)cc(OCCO)c1 (single isomer, unassigned) [Compound 1B, 2-(4-chloro-2-methoxyphenyl)-2-((3-(2-hydroxyethoxy)-5-methoxyphenyl)amino)-1-(6-(trifluoromethyl)indolin-1-yl)ethanone] |  |  |  | 0.0036 | 0.0044 | 0.0036 | 0.056 | 0.25 | 12 |  |  |  | 
COc1cc(NC(C(=O)N2CCc3ccc(C(F)(F)F)cc32)c2ccc(Cl)cc2)cc(OCCO)c1 (single isomer, unassigned) [Compound 4B, 2-(4-chlorophenyl)-2-((3-(2-hydroxyethoxy)-5-methoxyphenyl)amino)-1-(6-(trifluoromethyl)indolin-1-yl)ethanone] |  |  |  | 1.1 |  |  |  |  | 14 | 0.7 | 1 | > 1.9 | > 2.5
COc1cc(NC(C(=O)N2CCc3cc(OC)c(C(F)(F)F)cc32)c2ccc(Cl)cc2OC)cc(OCCO)c1 (single isomer, unassigned) [Compound 11B, 2-(4-chloro-2-methoxyphenyl)-2-((3-(2-hydroxyethoxy)-5-methoxyphenyl)amino)-1-(5-methoxy-6-(trifluoromethyl)indolin-1-yl)ethanone] |  |  |  | 0.0016 | 0.0078 | 0.002 | 0.034 | 0.28 | > 25 |  |  |  | 
COc1cc(NC(C(=O)N2CCc3ccc(C(F)(F)F)cc32)c2ccc(Cl)cc2)cc(OCCO)c1 (single isomer, unassigned) [Compound 4A, 2-(4-chlorophenyl)-2-((3-(2-hydroxyethoxy)-5-methoxyphenyl)amino)-1-(6-(trifluoromethyl)indolin-1-yl)ethanone] |  |  | 12 | 0.0036 |  |  |  |  |  | 0.0039 | 0.0043 | 0.027 | 0.21
COc1cc(NC(C(=O)N2CCc3ccc(OC(F)(F)F)cc32)c2ccc(Cl)cc2)cc(OCCO)c1 (single isomer, unassigned) [Compound 3A, 2-(4-chlorophenyl)-2-((3-(2-hydroxyethoxy)-5-methoxyphenyl)amino)-1-(6-(trifluoromethoxy)indolin-1-yl)ethanone] |  |  | 9.6 | 0.0023 | 0.0036 | 0.0022 | 0.029 | 0.19 |  |  |  |  | 
